# Reference: patent US20240358692A1, “TREATMENT OF SCLERODERMA” (Aisa Pharma, Inc., priority 2023, published 2024)
# System: participants with SSc-RP
# Test: SHAQ - Visual Analog Scale - Breathing Problems
# Assay type: in vivo, human
# Parameters: Visual Analog Scale-Breathing Problems, In Clinic Visit (Day 12), Mean / Visual Analog Scale-Breathing Problems, In Clinic Visit (Day 12), Median / SHAQ Visual Analogue Scale - Breathing Problems, In-Clinic Visit (Day 12), Mean / SHAQ Visual Analogue Scale - Breathing Problems, In-Clinic Visit (Day 12), Median / SHAQ Visual Analogue Scale - Breathing Problems, Change from Baseline, Median: scale not given here
# Settings: for % improvement in Breathing: median, SHAQ, mITT Part A
# From the text: The standard, validated, patient reported outcome measures tool for SSc patients, the Scleroderma Health Assessment Questionnaire (SHAQ), will be used to assess the participant qualify of life. Details are attached in the Appendix. The participant quality of life will be scored, and a disability index calculated for each questionnaire completed by the patient at Screening and each in-clinic visit. The absolute change in participant quality of life from baseline to the end of each dosing period will be calculated similar to frequency data as before.
# The standard, validated, patient reported outcome measures tool for SSc patients, the SHAQ, was collected at the time points specified in the study schedules (FIG. 2 and FIGS. 4A and 4B) to assess the participant's quality of life. The SHAQ included a Raynaud's VAS that will also be reported separately.
# [1] = Cilnidipine 10 mg, SSc patients, PP, Part A
# [2] = Cilnidipine 20 mg, SSc patients, PP, Part A
# [3] = Modified ITT Population-Part A, Day 12, dose cilnidipine 10 mg, tadalafil 5 mg, alone or combined as labelled
# [4] = Modified ITT Population-Part A, dose cilnidipine 20 mg, tadalafil 5 mg, alone or combined as labelled
# [5] = Pooled Cilnidipine (N = 8), Day 12, PP Population, Part A
# [6] = pooled Cilnidipine 10 mg and Cilnidipine 10 mg + Tadalafil 5 mg
# [7] = pooled Cilnidipine 20 mg and Cilnidipine 20 mg + Tadalafil 5 mg
# [8] = pooled cilnidipine 10 mg and 20 mg arms (combination: + tadalafil 5 mg)
smiles,measurement,setting,value
COCCOC(=O)C1=C(C)NC(C)=C(C(=O)OC/C=C/c2ccccc2)C1c1cccc([N+](=O)[O-])c1 (stereo not drawn) [Cilnidipine],"SHAQ VAS Breathing Problems, Percent Change from Baseline, Min",[1],"−16.0,"
same,"SHAQ VAS Breathing Problems, Percent Change from Baseline, Q1",[1],"−16.00,"
same,"SHAQ VAS Breathing Problems, Percent Change from Baseline, Q3",[1],−16.00
same,% improvement in Breathing,Cilnidipine 20 mg (n = 3),67% (median)
same,"SHAQ VAS Breathing Problems, Change from Baseline, Max",[2],0.60
same,"SHAQ VAS Breathing Problems, Change from Baseline, Median",[2],−0.250
same,"SHAQ VAS Breathing Problems, Change from Baseline, Min",[2],"−2.00,"
same,"SHAQ VAS Breathing Problems, Change from Baseline, Q1",[2],"−1.400,"
same,"SHAQ VAS Breathing Problems, Change from Baseline, Q3",[2],0.450
same,"SHAQ VAS Breathing Problems, Day 12, Max",[2],2.50
same,"SHAQ VAS Breathing Problems, Day 12, Mean",[2],0.850
same,"SHAQ VAS Breathing Problems, Day 12, Median",[2],0.450
same,"SHAQ VAS Breathing Problems, Day 12, Min",[2],"0.00,"
same,"SHAQ VAS Breathing Problems, Day 12, Q1",[2],"0.200,"
same,"SHAQ VAS Breathing Problems, Day 12, Q3",[2],1.500
same,"SHAQ VAS Breathing Problems, Percent Change from Baseline, Max",[2],150.0
same,"SHAQ VAS Breathing Problems, Percent Change from Baseline, Min",[2],"−100.0,"
same,"SHAQ VAS Breathing Problems, Percent Change from Baseline, Q1",[2],"−83.33,"
same,"SHAQ VAS Breathing Problems, Percent Change from Baseline, Q3",[2],90.79
same,"Visual Analog Scale-Breathing Problems, Change from Baseline, Mean",[3],−0.300
same,"Visual Analog Scale-Breathing Problems, Change from Baseline, Median",[3],0.000
same,"Visual Analog Scale-Breathing Problems, Percent Change from Baseline, Mean",[3],−16.00%
same,"Visual Analog Scale-Breathing Problems, Percent Change from Baseline, Median",[3],−16.00%
same,"Visual Analog Scale-Breathing Problems, Change from Baseline, Median","Modified ITT Population-Part A, Day 12, dose cilnidipine 20 mg, tadalafil 5 mg, alone or combined as labelled",−0.800
same,"Visual Analog Scale-Breathing Problems, In Clinic Visit (Day 12), Median","Modified ITT Population-Part A, dose cilnidipine 10 mg, tadalafil 5 mg, alone or combined as labelled",0.000
same,"Visual Analog Scale-Breathing Problems, In Clinic Visit (Day 12), Mean",[4],0.300
same,"Visual Analog Scale-Breathing Problems, In Clinic Visit (Day 12), Median",[4],0.400
same,"SHAQ Visual Analogue Scale - Breathing Problems, In-Clinic Visit (Day 12), Mean","Pooled Cilnidipine 20 mg and Cilnidipine 20 mg + Tadalafil 5 mg (N = 8), Day 12, PP Population, Part A",1.400
same,"SHAQ Visual Analogue Scale - Breathing Problems, Change from Baseline, Mean (SD)",[5],−0.388 (0.8725)
same,"SHAQ Visual Analogue Scale - Breathing Problems, In-Clinic Visit (Day 12), Mean (SD)",[5],1.213 (2.2229)
same,"SHAQ Visual Analogue Scale - Breathing Problems, In-Clinic Visit (Day 12), Median",[5],0.200
same,"SHAQ Visual Analogue Scale - Breathing Problems, Percent Change from Baseline, Mean (SD)",[5],−0.22 (97.721) %
same,% improvement in Breathing,Pooled Cilnidipine (n = 7),41% (median)
same,"% Δ from baseline, VAS Breathing mean",Pooled cilnidipine (n=4),−8.2%
same,VAS Breathing Problems Change from Baseline Max,[6],1.00
same,VAS Breathing Problems Change from Baseline Mean,[6],−0.175
same,VAS Breathing Problems Change from Baseline Median,[6],0.000
same,VAS Breathing Problems Change from Baseline Min,[6],−1.20
same,VAS Breathing Problems Change from Baseline Q1,[6],−0.600
same,VAS Breathing Problems Change from Baseline Q3,[6],0.000
same,VAS Breathing Problems Day 12 Max,[6],6.30
same,VAS Breathing Problems Day 12 Median,[6],0.000
same,VAS Breathing Problems Day 12 Min,[6],0.00
same,VAS Breathing Problems Day 12 Q1,[6],0.000
same,VAS Breathing Problems Day 12 Q3,[6],2.350
same,VAS Breathing Problems Percent Change from Baseline Max,[6],38.5%
same,VAS Breathing Problems Percent Change from Baseline Mean,[6],−26.05%
same,VAS Breathing Problems Percent Change from Baseline Median,[6],−21.33%
same,VAS Breathing Problems Percent Change from Baseline Min,[6],−100.0%
same,VAS Breathing Problems Percent Change from Baseline Q1,[6],−63.33%
same,VAS Breathing Problems Percent Change from Baseline Q3,[6],11.23%
same,VAS Breathing Problems Change from Baseline Max,[7],3.70
same,VAS Breathing Problems Change from Baseline Median,[7],0.000
same,VAS Breathing Problems Change from Baseline Min,[7],−2.00
same,VAS Breathing Problems Change from Baseline Q1,[7],−0.800
same,VAS Breathing Problems Change from Baseline Q3,[7],0.600
same,VAS Breathing Problems Day 12 Max,[7],6.90
same,VAS Breathing Problems Day 12 Median,[7],0.400
same,VAS Breathing Problems Day 12 Min,[7],0.00
same,VAS Breathing Problems Day 12 Q1,[7],0.000
same,VAS Breathing Problems Day 12 Q3,[7],0.700
same,VAS Breathing Problems Percent Change from Baseline Max,[7],600.0%
same,VAS Breathing Problems Percent Change from Baseline Min,[7],−100.0%
same,VAS Breathing Problems Percent Change from Baseline Q1,[7],−75.00%
same,VAS Breathing Problems Percent Change from Baseline Q3,[7],150.00%
same,VAS Breathing Problems Change from Baseline Max,[8],0.30
same,VAS Breathing Problems Change from Baseline Median,[8],0.000
same,VAS Breathing Problems Change from Baseline Min,[8],−2.00
same,VAS Breathing Problems Change from Baseline Q1,[8],−1.200
same,VAS Breathing Problems Change from Baseline Q3,[8],0.000
same,VAS Breathing Problems Day 12 Max,[8],6.30
same,VAS Breathing Problems Day 12 Median,[8],0.000
same,VAS Breathing Problems Day 12 Min,[8],0.00
same,VAS Breathing Problems Day 12 Q1,[8],0.000
same,VAS Breathing Problems Day 12 Q3,[8],0.500
same,VAS Breathing Problems Percent Change from Baseline Max,[8],150.0%
same,VAS Breathing Problems Percent Change from Baseline Mean,[8],−8.17%
same,VAS Breathing Problems Percent Change from Baseline Median,[8],−41.33%
same,VAS Breathing Problems Percent Change from Baseline Min,[8],−100.0%
same,VAS Breathing Problems Percent Change from Baseline Q1,[8],−83.33%
same,VAS Breathing Problems Percent Change from Baseline Q3,[8],67.00%
